In patent US10421749B2, “Pyrone derivatives for use as antiviral agents” (priority 2015, dated 2019):
“Also recorded” adds a separate entry of the source.

How the values were obtained:
[1] = test system: HIV-1 expression in HNSCLatGFP1.1 cells; experiment: Induced expression of latent HIV-1-gfp reporter virus in HNSCLatGFP1.1 cells (GFP, FACS); assay type: cell-based, human; conditions: induction with TNF; 0.5, 5, 50 nM compound; FIG. 3A
Procedure: A) Induction of expression of HIV-1 in HNSCLatGFP1.1 cells using TNF: 1: untreated (negative control); 2: TNF (positive control); 3: 0.5 nM Compound 1; 4: 5 nM Compound 1; 5: 50 nM Compound 1; 6: 0.5 nM Compound 1+TNF; 7: 5 nM Compound 1+TNF; 8: 50 nM Compound 1+TNF. B) Induction of expression of HIV-1 in HNSCLatGFP1.1 cells using TNF+SAHA: 1: mock; 2: TNF+SAHA; 3: 50 nM Compound 1; 4: TNF+SAHA+50 nM Compound 1. C) Induction of expression of HIV-1 in HNSCLatGFP1.1 cells using SAHA: 1: untreated (negative control); 2: SAHA (positive control); 3: 0.5 nM Compound 1; 4: 5 nM Compound 1; 5: 50 nM Compound 1; 6: 0.5 nM Compound 1+SAHA; 7: 5 nM Compound 1+SAHA; 8: 50 nM Compound 1+SAHA.
To further characterize the inhibitory effects of Compound 1, a further cell line (HNSCLatGFP1.1) was established into the genome of which the genome of a HIV-1-gfp reporter virus has been stably integrated.
Reference cultures were either untreated (minimum signal; lane 1 of FIG. 3A) or exposed to TNF (maximum signal; lane 2 of FIG. 3A). HNSCLatGFP1.1 cells were exposed to different concentrations of Compound 1 either alone (lanes 3 to 5 of FIG. 3A) or together with TNF (lanes 6 to 8 of FIG. 3A).

LC5-RIC cells = experiment: MTT cell viability assay of LC5-RIC test cultures; assay type: cell-based; conditions: concentration range tested 0 to 120 μM; FIG. 1C
Description: Effects of compounds on cell viability wasy measured by MTT assay, Cell Titre Blue Assay and Cell Tox Green Assay. The MTT assay and the Cell Titre Blue Assay evaluate metabolic activity of cells, The Cell Tox Green assay measures cell death (i.e. loss of cell membrane integrity). The MTT assay measures the reduction of the yellow MTT to purple formazan by mitochondrial enzymes (Mosmann, T., J. Immunol. Methods 65 (1983), 55-63) Immediately following measurement of reporter expression, cultures were incubated with 100 μl of MTT solution (0.5 mg of MTT; Sigma, Taufkirchen, Germany) in 100 μl of culture medium for 2 h under standard culture conditions. MTT solution was carefully removed, and cells were lysed by addition of 100 μl of lysis solution (10% [wt/vol] SDS and 0.6% [vol/vol] acetic acid in dimethyl sulfoxide [DMSO]). The released MTT formazan crystals were dissolved by gentle agitation, and MTT formazan concentrations were determined by an ELISA plate reader (SmartSpec Plus; Bio-Rad, Muenchen, Germany) or Tecan Infinite M200 at a test wavelength of 570 nm and a reference wavelength of 630 nm. Values for treated HIV-infected cultures were related to those of untreated, HIV-infected cultures in the same plate. […]

HIV-1 [2] = experiment: microbe, parasite or virus in culture; conditions: Human immunodeficiency virus 1, 48 h, read-out: EC50 with respect to HIV replication
Procedure: (§2) LC5-RIC cells were seeded into 96-well plates (μCLEAR-Plate Black; Greiner Bio-One, Kremsmuenster, Germany), using only the 60 inner wells to avoid adverse effects caused by variations in the culture conditions in the outer wells. Cells were seeded at a density of 10^4 per well at 24 h prior to infection. Compounds were tested either at single concentrations or in serial dilutions, with each concentration assayed in triplicate. Compound solution (100 μl) followed by 20 μl of HIV inoculum (10^8 RNA copies/ml inoculum for KE37.1-derived HIV-1IIIB or 28.8 ng of p24 for HIV-1LAI derived from HEK 293T cells) was added to each well. To assay maximum infection (i.e., 100%), HIV inoculum was added to LC5-RIC cells incubated with compound-free medium. Controls for background expression consisted of LC5-RIC cells cultured in conditioned medium from KE37.1 (i.e., uninfected) cells. Plates were incubated for 48 h after virus addition, after which cultures were assayed for cellular reporter expression and for titers of infectious virus in supernatant fluids. Reporter expression was determined by measuring the total fluorescent signal intensity of each culture with a fluorescence microplate reader (Fluoroskan Ascent; ThermoFisher, Schwerte, Germany) at an excitation filter wavelength of 544 nm and an emission filter wavelength of 590 nm or with a Tecan infinite M200 (Tecan, Crailsheim, Germany) at the monochromator wavelengths 552 nm for excitation and 596 for emission. To quantify infectious virus titers, supernatant fluids (30 μl of HIV-1IIIB or 20 μl for HIV-1LAI) from cultures in the first plate were transferred to a second plate with uninfected LC5-RIC cells in exact replicate, and total fluorescent signal intensities of cultures in the second plate were measured 72 h after transfer.
(§3) Curve fits and EC50 calculations were done with Prism, version 4 (GraphPad Software, La Jolla, Calif.), using the equation for sigmoidal dose response with variable slope with the following set constraint parameters: fixed top of 100 and fixed bottom of 0. As internal acceptance criteria, R^2 values had to be ≥0.9.
(§4) To evaluate the inhibitory effects of the pyrone derivatives described herein, the EASY-HIT assay was used as disclosed in Kremp et al., supra. Briefly, a pyrone compound (or another test compound) was added to LC5-RIC cultures (or other uninfected cells, such as PBMCs) in microtiter plates, HIV preparations were added within 30 min of beginning treatment, and test cultures were incubated for 48 h after virus addition. Reference cultures were either exposed to the virus without test compound (maximum signal) or not exposed to the virus (minimum signal). Effects of test compounds on HIV infection of LC5-RIC cultures were determined in two steps. The first step quantified reporter expression by assaying fluorescent signal intensities of cells in test cultures. The second step quantified the infectious virus produced in test cultures by transferring aliquots of supernatants of test cultures to uninfected LC5-RIC cells (or other uninfected cells, such as PBMCs), followed by measurement of fluorescent signal intensities at 72 h after transfer. Cells evaluated for reporter expression were subjected to an MTT assay to detect deleterious effects of test compounds on cell viability under test conditions.
(§5) Briefly, the test compound) was added to LC5-RIC cultures in microtiter plates. HIV-1 virus preparations were added within 30 min of beginning treatment with the text compound and test cultures were incubated for 48 h after virus addition. Reference cultures were either exposed to the virus without test compound (maximum signal) or not exposed to the virus (minimum signal).

HIV = experiment: Time-of-addition (TOA) assay in LC5-RIC cells; assay type: cell-based, HIV-1; conditions: FIG. 2
Procedure: TOA assays were performed in 96-well plates using a standard assay setup with some modifications. HIV-1IIIB virus preparations were added to LC5-RIC cultures at time point 0. Anti-HIV compounds were added to the cultures at different time points after addition of virus preparations. Inhibitor concentrations were ≥2× EC50 in each well. At least 15 different time points were evaluated for each compound in at least three wells per time point. Cultures were incubated with virus for 48 h and subsequently analyzed for cellular reporter gene expression and/or infectious virus titers in culture supernatants.
To further characterize the inhibitory effects of Compound 1, HIV preparations were added to LC5-RIC cells at the time point 0. Compound 1 was added to the cultures at different time points after virus addition (i.e., p.i.). Plates were incubated for a total period of 48 h after virus addition, and cultures were assayed for HIV reporter expression (step 1) or for amounts of infectious virus in culture supernatants (step 2). Fluorescent signal intensities of treated cultures were related to those of cultures infected without inhibitors (set at 100% infection).

HBV = HBV replication in HepG2.2.15 cells (HBeAg, released viral particles, intracellular HBV DNA); assay type: cell-based; conditions: three days treatment, 1 μM to 1 nM
Procedure: Antiviral effect of Compound 1 on HBV replication. A) After a three days treatment of HepG2.2.15 cells with Compound 1 in a concentration range from 1 μM to 1 nM, the cell viability was unchanged compared to untreated control cells.
(§1) The human hepatoma cell line HepG2.2.15, stably expressing HBV particles, was seeded in a 48 well format at a density of 5×10^4 the day before starting the treatment. Next day the cells were treated with 1 μM, 100 nM, 10 nM and 1 nM of Compound 1 with 3 independent biological replicates each. The cells were cultured in differentiation medium containing 1.8% DMSO, to slow down cell growth and enhance viral replication. Three days after treatment, cell viability (FIG. 4A) was determined by cell titer blue assay, cell supernatants were analyzed for HBeAg and newly released viral particles (FIGS. 4B and C) and finally cells were harvested to analyze for intracellular HBV DNA (FIG. 4D).

HepG2.2.15 cells = experiment: Cell viability of HepG2.2.15 cells by cell titer blue assay; assay type: cell-based, human; conditions: three days treatment, 1 μM to 1 nM, compared to untreated control cells; FIG. 4A
Procedure: as §1

HIV-1 [3] = conditions: LC5-RIC cells; for inhibition of HIV-1 replication: 48 h, steps 1 and 2, FIG. 5; for inhibition of the late phase of HIV-1 replication: step 2 (supernatant transfer, 72 h), FIG. 6, FIG. 7
Procedure: as §2, §3, §4, §5

Structure (SMILES): COc1oc([C@H]2C/C(=C/C(C)=C/c3ccc([N+](=O)[O-])cc3)CO2)c(C)c(=O)c1C [Compound 1]
- inhibition of virus production in HNSCLatGFP1.1 cells [1]: able to inhibit virus production in HNSCLatGFP1.1 cells in a dose dependent manner
- toxic effect (MTT cell viability) (LC5-RIC cells): did not exhibit any toxic effect
- EC50 (HIV-1 [2]): 0.6 nM
- time between infection and addition of compound at which HIV replication was still blocked (HIV; LC5-RIC cells, 48 h total incubation): 30 h
- stage of HIV replication inhibited (time-of-addition) (HIV; compound added at different time points after virus addition, 48 h total): inhibited the HIV replication at a very early stage
- IC50 (HBV; Hepatitis B virus, 72 h, n=3, read-out: IC50 of viral replication markers (HBeAg, released viral particles, intracellular HBV DNA)): 2 to 20 nM
- viral replication markers (HBeAg, newly released viral particles, intracellular HBV DNA) (HBV; FIG. 4B-D): strongly reduced in a dose dependent fashion
- cell viability of HepG2.2.15 cells (HepG2.2.15 cells): unchanged; also recorded: without affecting cell viability

Structure (SMILES): COc1oc([C@H]2C/C(=C/C(C)=C/c3ccc(Cl)cc3)CO2)c(C)c(=O)c1C [Compound 4]
- inhibition of HIV-1 replication (HIV-1 [3]): inhibit HIV-1 replication

Structure (SMILES): COc1oc([C@H]2C/C(=C/C(C)=C/c3cccc(Cl)c3)CO2)c(C)c(=O)c1C [Compound 19]
- inhibition of HIV-1 replication (HIV-1 [3]): inhibit HIV-1 replication

Structure (SMILES): COc1oc([C@H]2C/C(=C/C(C)=C/c3ccc(F)cc3F)CO2)c(C)c(=O)c1C [Compound 21]
- inhibition of the late phase of HIV-1 replication (HIV-1 [3]): highest activities

Structure (SMILES): COc1oc([C@H]2C/C(=C/C(C)=C/c3ccc(C(F)(F)F)cc3)CO2)c(C)c(=O)c1C [Compound 22]
- inhibition of the late phase of HIV-1 replication (HIV-1 [3]): highest activities

Structure (SMILES): COc1ccc(/C=C(C)/C=C2\CO[C@@H](c3oc(OC)c(C)c(=O)c3C)C2)cc1OC [Compound 23]
- inhibition of the late phase of HIV-1 replication (HIV-1 [3]): lowest activity
